Measurements: ChEMBL document CHEMBL5230155, “Recent contributions of quinolines to antimalarial and anticancer drug discovery research” (Eur J Med Chem, 2021)
≈ marks a conversion by molar mass, not a printed value.

What was measured:
[1] = system: MCF7; test: Antiproliferative activity against human MCF7 cells; type: functional, cell-based
[2] = system: Hep 3B2; test: Cytotoxicity against human Hep3B cells assessed as relative value at 15 uM after 48 hrs by MTS method; type: functional
[3] = system: Hep 3B2; test: Cytotoxicity against human Hep3B cells; type: functional, cell-based
[4] = Cytotoxicity against human SLMT-1 cells
[5] = system: A2780; test: Antiproliferative activity against human A2780 cells; type: functional, cell-based
[6] = system: A2780; test: Antiproliferative activity against cisplatin resistant human A2780 cells; type: functional, cell-based
[7] = system: MCF7; test: Antiproliferative activity against mitoxantrone resistant human MCF7 cells; type: functional, cell-based
[8] = Antiproliferative activity against HUVEC cells; type: toxicity, cell-based; settings: human
[9] = system: A549; test: Cytotoxicity against human A549 cells; type: functional, cell-based
[10] = system: K562; test: Cytotoxicity against human K562 cells; type: functional, cell-based
[11] = target: Phosphatidylinositol 4,5-bisphosphate 3-kinase catalytic subunit gamma isoform (Homo sapiens, UniProt P48736); test: Inhibition of PI3K gamma (unknown origin)
[12] = system: Plasmodium falciparum; test: Antimalarial activity against Plasmodium falciparum 3D7; type: functional, organism-based
[13] = system: Hemozoin; test: Inhibition of beta-hematin formation
[14] = system: Plasmodium berghei; test: Antimalarial activity against Plasmodium berghei ANKA infected in mouse assessed increase in survival time at 20 mg/kg/day, ip for 4 days; type: functional; settings: time 4 day
[15] = system: Plasmodium berghei; test: Antiplasmodial activity against Plasmodium berghei ANKA infected in mouse assessed as reduction in parasitaemia at 20 mg/kg/day, ip administered for 4 days; type: functional; parameters: scale not given: the % may be the effect or the level left; settings: time 4 day
[16] = system: Plasmodium berghei; test: Antiplasmodial activity against Plasmodium berghei infected in mouse assessed as reduction in parasitaemia at 200 mg/kg/day, ip administered for 4 days; type: functional; parameters: scale not given: the % may be the effect or the level left; settings: time 4 day
[17] = system: Plasmodium berghei; test: Antiplasmodial activity against Plasmodium berghei infected in mouse assessed as increase in mean survival time at 100 mg/kg, po administered for 3 days (reference value: 7.6 day); type: functional; settings: time 3 day
[18] = system: Hemozoin; test: Inhibition of beta-hematin formation relative to control; settings: concentration not given here
[19] = system: NCI-H460; test: Antiproliferative activity against human NCI-H460 cells; type: functional, cell-based
[20] = system: PANC-1; test: Antiproliferative activity against human PANC-1 cells; type: functional, cell-based
[21] = system: MIA PaCa-2; test: Antiproliferative activity against human MIA PaCa-2 cells; type: functional, cell-based
[22] = system: HT-29; test: Antiproliferative activity against human HT-29 cells; type: functional, cell-based
[23] = system: A-375; test: Antiproliferative activity against human A-375 cells; type: functional, cell-based
[24] = system: MV4-11; test: Antiproliferative activity against human MV4-11 cells; type: functional, cell-based
[25] = target: Histone-lysine N-methyltransferase, H3 lysine-79 specific (Homo sapiens, UniProt Q8TEK3); test: Inhibition of DOT1L (unknown origin)
[26] = system: HeLa; test: Cytotoxicity against human HeLa cells at 2.5 uM; type: functional
[27] = system: HeLa; test: Antiproliferative activity against human HeLa cells; type: functional, cell-based
[28] = system: MDA-MB-231; test: Antiproliferative activity against human MDA-MB-231 cells; type: functional, cell-based
[29] = system: KG-1a; test: Antiproliferative activity against human KG-1a cells; type: functional, cell-based
[30] = target: Hepatocyte growth factor receptor (Homo sapiens, UniProt P08581); test: Inhibition of c-Met (unknown origin)
[31] = system: Leukemia cell; test: Antiproliferative activity against human Leukemia cells; type: functional
[32] = Antiproliferative activity against human CNS cells; type: functional; settings: CNS cell
[33] = system: Breast carcinoma cell; test: Antiproliferative activity against human breast cancer cells; type: functional
[34] = system: Plasmodium falciparum; test: Antimalarial activity against multidrug resistant Plasmodium falciparum Dd2; type: functional, organism-based
[35] = system: Plasmodium falciparum; test: Antimalarial activity against CQ-sensitive Plasmodium falciparum D6; type: functional, organism-based
[36] = system: Plasmodium falciparum; test: Antimalarial activity against CQ-resistant Plasmodium falciparum 7G8; type: functional, organism-based
[37] = system: Lymphocyte; test: Cytotoxicity against mouse spleen lymphocytes; type: toxicity, cell-based
[38] = system: HepG2; test: Antitumor activity against human HepG2 cells xenografted in nude mouse assessed as reduction in tumor increment rate at 5 mg/kg/day (reference value: 100%); type: functional; parameters: scale not given: the % may be the effect or the level left
[39] = system: Plasmodium falciparum; test: Antimalarial activity against CQ-resistant Plasmodium falciparum Dd2; type: functional, organism-based
[40] = target: Epidermal growth factor receptor (Homo sapiens, UniProt P00533)
[41] = system: Plasmodium falciparum; test: Antimalarial activity against CQ-sensitive Plasmodium falciparum 3D7; type: functional, organism-based
[42] = system: Plasmodium berghei; test: Antimalarial activity against liver stage Plasmodium berghei; type: functional, organism-based
[43] = system: HCT-116; test: Cytotoxicity against human HCT-116 cells; type: functional, cell-based
[44] = system: RPMI-8226; test: Cytotoxicity against human RPMI-8226 cells; type: functional, cell-based
[45] = system: G-361; test: Antiproliferative activity against human G-361 cells; type: functional, cell-based
[46] = system: HepG2; test: Cytotoxicity against human HepG2 cells; type: functional, cell-based; settings: Homo sapiens, HepG2
[47] = system: SK-OV-3; test: Antiproliferative activity against human SK-OV-3 cells; type: functional, cell-based
[48] = system: BEL-7404 tumor cell line; test: Antiproliferative activity against human BEL-7404 cells; type: functional, cell-based
[49] = system: HepG2; test: Antitumor activity against human HepG2 cells xenografted in nude mouse assessed as reduction in tumor increment rate at 20 mg/kg/day (reference value: 100%); type: functional; parameters: scale not given: the % may be the effect or the level left
[50] = system: Plasmodium berghei; test: Antimalarial activity against Plasmodium berghei ANKA infected in mouse assessed increase in survival time (reference value: 6.8 day); type: functional
[51] = system: Plasmodium falciparum; test: Antimalarial activity against CQ-resistant Plasmodium falciparum RKL9; type: functional, organism-based
[52] = system: PC-3; test: Antiproliferative activity against human PC-3 cells; type: functional, cell-based
[53] = system: KG-1; test: Cytotoxicity against human KG-1 cells; type: functional, cell-based
[54] = system: Raji; test: Cytotoxicity against human Raji cells; type: functional, cell-based
[55] = system: MDA-MB-231; test: Cytotoxicity against human MDA-MB-231 cells; type: functional, cell-based

Sequence of Hepatocyte growth factor receptor (P08581 whole entry): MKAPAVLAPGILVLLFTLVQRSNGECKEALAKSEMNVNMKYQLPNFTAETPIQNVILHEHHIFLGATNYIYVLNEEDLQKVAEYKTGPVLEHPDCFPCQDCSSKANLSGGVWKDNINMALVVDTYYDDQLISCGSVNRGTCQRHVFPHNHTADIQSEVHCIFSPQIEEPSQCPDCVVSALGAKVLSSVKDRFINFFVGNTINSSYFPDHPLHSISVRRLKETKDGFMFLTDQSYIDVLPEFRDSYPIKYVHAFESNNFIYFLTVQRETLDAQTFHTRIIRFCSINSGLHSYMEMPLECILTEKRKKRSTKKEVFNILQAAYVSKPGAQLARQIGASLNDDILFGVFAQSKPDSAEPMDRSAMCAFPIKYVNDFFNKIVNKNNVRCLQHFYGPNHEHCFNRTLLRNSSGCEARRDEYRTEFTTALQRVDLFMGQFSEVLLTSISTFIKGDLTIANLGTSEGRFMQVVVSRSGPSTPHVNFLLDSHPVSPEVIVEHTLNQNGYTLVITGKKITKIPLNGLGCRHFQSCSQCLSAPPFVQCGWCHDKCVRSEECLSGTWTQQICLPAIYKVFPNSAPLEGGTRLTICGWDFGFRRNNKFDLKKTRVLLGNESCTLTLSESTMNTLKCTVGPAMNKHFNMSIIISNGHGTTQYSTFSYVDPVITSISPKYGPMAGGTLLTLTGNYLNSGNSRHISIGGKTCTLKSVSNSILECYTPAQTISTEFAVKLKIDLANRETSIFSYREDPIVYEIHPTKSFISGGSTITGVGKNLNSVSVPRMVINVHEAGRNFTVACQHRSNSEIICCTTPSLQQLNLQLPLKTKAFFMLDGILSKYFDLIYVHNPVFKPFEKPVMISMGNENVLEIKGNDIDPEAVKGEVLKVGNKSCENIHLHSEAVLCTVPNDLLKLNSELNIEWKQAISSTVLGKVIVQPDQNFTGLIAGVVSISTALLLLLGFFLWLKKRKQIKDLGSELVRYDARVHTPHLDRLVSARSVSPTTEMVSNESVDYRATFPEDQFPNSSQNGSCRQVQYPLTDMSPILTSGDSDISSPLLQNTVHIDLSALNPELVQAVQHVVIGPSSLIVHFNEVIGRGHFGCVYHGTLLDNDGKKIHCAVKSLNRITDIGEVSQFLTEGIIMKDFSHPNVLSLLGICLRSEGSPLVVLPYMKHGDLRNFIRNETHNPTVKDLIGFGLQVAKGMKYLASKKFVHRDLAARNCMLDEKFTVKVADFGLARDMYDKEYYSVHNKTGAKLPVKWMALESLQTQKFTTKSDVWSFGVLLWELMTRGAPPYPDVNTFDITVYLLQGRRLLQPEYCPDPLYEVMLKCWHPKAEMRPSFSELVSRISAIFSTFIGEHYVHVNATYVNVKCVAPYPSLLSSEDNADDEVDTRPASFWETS
Sequence of Phosphatidylinositol 4,5-bisphosphate 3-kinase catalytic subunit gamma isoform (P48736 whole entry, canonical isoform): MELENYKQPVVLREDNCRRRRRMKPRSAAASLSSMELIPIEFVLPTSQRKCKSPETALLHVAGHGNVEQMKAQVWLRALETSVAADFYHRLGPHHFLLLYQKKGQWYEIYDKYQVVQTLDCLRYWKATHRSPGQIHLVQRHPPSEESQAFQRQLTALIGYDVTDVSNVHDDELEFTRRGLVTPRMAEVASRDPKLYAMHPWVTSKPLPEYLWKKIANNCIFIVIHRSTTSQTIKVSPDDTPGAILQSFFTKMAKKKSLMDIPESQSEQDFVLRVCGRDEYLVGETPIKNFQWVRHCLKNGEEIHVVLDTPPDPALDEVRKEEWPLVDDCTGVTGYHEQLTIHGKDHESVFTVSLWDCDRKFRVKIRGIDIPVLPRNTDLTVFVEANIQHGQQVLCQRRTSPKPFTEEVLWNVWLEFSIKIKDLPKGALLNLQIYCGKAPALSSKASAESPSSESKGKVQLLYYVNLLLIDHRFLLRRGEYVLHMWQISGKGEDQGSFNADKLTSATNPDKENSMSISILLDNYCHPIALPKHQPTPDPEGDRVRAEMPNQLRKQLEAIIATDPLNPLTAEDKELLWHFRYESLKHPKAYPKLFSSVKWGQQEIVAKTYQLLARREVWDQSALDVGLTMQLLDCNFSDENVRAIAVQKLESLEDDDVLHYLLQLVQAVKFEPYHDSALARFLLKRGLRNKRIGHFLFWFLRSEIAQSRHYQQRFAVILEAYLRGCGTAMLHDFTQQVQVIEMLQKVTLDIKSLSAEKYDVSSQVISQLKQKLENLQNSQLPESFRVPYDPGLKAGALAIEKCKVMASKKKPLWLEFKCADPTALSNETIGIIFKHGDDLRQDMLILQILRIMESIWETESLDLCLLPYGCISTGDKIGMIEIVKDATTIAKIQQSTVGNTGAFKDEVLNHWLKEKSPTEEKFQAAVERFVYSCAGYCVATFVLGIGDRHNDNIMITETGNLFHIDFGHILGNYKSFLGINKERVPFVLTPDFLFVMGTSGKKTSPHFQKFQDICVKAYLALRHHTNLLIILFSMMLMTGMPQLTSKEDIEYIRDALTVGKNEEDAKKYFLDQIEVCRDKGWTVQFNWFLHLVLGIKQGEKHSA
Sequence of Epidermal growth factor receptor (P00533 whole entry): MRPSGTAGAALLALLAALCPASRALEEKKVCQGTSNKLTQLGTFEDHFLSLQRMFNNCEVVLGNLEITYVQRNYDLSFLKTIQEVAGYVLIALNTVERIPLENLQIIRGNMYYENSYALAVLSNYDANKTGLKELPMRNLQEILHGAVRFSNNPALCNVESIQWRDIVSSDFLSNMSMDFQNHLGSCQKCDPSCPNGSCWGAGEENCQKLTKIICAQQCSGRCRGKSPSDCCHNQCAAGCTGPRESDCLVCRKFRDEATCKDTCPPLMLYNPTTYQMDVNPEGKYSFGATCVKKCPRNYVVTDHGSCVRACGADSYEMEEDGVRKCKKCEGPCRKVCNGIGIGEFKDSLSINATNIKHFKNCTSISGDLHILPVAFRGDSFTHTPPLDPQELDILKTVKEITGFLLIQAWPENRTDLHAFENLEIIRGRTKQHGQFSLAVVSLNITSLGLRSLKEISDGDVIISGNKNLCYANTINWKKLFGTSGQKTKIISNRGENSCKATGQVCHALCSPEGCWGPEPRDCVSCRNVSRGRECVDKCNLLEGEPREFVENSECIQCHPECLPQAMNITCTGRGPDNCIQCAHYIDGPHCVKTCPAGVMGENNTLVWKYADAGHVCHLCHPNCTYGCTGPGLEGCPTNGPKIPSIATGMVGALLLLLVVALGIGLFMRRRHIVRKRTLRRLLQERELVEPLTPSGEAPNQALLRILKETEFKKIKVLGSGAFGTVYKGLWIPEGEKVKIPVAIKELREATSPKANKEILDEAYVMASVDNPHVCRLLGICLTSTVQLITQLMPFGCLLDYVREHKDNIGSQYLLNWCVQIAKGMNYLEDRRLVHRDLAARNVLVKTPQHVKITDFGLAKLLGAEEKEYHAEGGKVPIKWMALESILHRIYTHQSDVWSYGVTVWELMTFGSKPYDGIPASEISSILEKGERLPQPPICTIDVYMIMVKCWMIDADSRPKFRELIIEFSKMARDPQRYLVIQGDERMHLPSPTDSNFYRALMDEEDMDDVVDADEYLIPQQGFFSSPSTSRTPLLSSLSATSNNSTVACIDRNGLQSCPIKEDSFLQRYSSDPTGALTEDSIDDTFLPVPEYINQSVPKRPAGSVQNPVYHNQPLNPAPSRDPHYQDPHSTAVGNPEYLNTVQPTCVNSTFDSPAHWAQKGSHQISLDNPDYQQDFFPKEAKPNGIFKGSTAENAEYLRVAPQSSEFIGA

O=S(=O)(Nc1cccc2cccnc12)c1cccc2cccnc12
IC50 ([1]; Homo sapiens, MCF7): 1230 nM | fold change (FC) [2]: 0.23 | IC50 [3]: 1230 nM | IC50 [4]: 1230 nM

COc1ccc(Nc2cc(/C=C/c3ccc([N+](=O)[O-])cc3)nc3cc(OC)c(OC)c(OC)c23)cc1OC
IC50 ([1]; Homo sapiens, MCF7): 1130 nM | IC50 [5]: 1130 nM | IC50 [6]: 1130 nM | IC50 [7]: 1130 nM | IC50 [8]: 7820 nM

Cc1ccc(-c2cc(C(=O)N/N=C(\C=C\c3ccc(Cl)cc3)c3ccc(N)cc3)c3ccccc3n2)cc1
IC50 [9]: 1910 nM | IC50 [10]: 1910 nM | IC50 [11]: 197 nM

CCN(CC)CCCC(C)Nc1ccnc2cc(Cl)ccc12 (stereo not drawn) [CHLOROQUINE]
EC50 [12]: 165 nM | IC50 [13]: 890000 nM | Time [14]: 24.99 days | Activity [15]: 0.32% | Activity [16]: 100% | Time [17]: 26.2 days | inhibition [18]: 52.1%

COc1ccc(/C=C\c2cc(OC)c(OC)c(OC)c2)cc1O [COMBRETASTATIN A4]
IC50 [19]: 180 nM | IC50 [20]: 180 nM | IC50 [21]: 180 nM | IC50 [22]: 180 nM | IC50 [23]: 180 nM | IC50 [8]: 1560 nM

CCN(CCNC(=O)Nc1ccc(C(C)(C)C)cc1)c1nc(C)cc(Nc2ccc3nc(C)cc(N)c3c2)n1
IC50 [24]: 1620 nM | IC50 [25]: 5720 nM

CCOc1ccc(Nc2cc(C)nc3ccc(Cl)cc23)cc1
Activity [26]: 8%

COc1ccc2nc(-c3ccc(Br)cc3)cc(-c3nnc(Nc4ccc([N+](=O)[O-])cc4)o3)c2c1
IC50 [27]: 50 nM | IC50 [28]: 540 nM | IC50 [29]: 1210 nM

COc1cc2nccc(Oc3ccc(NC(=O)C4(C(=O)Nc5ccc(F)cc5)CC4)cc3)c2cc1OC(=O)c1ccc(N)cc1
IC50 [30]: 19 nM | GI50 [31]: 290 nM | GI50 [32]: 290 nM | GI50 [33]: 290 nM

Clc1ccc2c(NCCCN3CCC(Nc4ccnc5cc(Cl)ccc45)CC3)ccnc2c1
IC50 [34]: 0.36 nM | IC50 [35]: 0.15 nM | IC50 [36]: 0.33 nM | LC50 [37]: 190 nM

CC(=O)O[C@H]1C(=O)[C@@]2(C)[C@H]([C@H](OC(=O)c3ccccc3)[C@]3(O)C[C@H](OC(=O)[C@H](O)[C@@H](NC(=O)c4ccccc4)c4ccccc4)C(C)=C1C3(C)C)[C@]1(OC(C)=O)CO[C@@H]1C[C@@H]2O [PACLITAXEL]
Activity [38]: 19%

CN(C)CCNc1cc(/C=C/c2cccs2)nc2ccccc12
IC50 [39]: 33 nM

COc1ccc2nc(Cl)c(C3CC(c4ccc(C)cc4)=NN3c3nc(C)c(C(=O)Nc4ccccc4)s3)cc2c1 (stereo not drawn)
IC50 [40]: 42.5 nM

COc1cc(C)c2c(Oc3cccc(C(F)(F)F)c3)c(OC)cc(NC(C)CCON)c2n1 (stereo not drawn)
IC50 [41]: 380 nM | IC50 [42]: 5400 nM

COc1cccc2c1C(=O)c1c(O)c3c(c(O)c1C2=O)C[C@@](O)(C(=O)CO)C[C@@H]3O[C@H]1C[C@H](N)[C@H](O)[C@H](C)O1 [DOXORUBICIN]
IC50 [43]: 410 nM | IC50 ([1]; mcf7): 1980 nM | IC50 [44]: 410 nM | IC50 [3]: 270 nM | IC50 [4]: 270 nM | IC50 [45]: 2440 nM

COc1cc2nccc(Oc3ccc(NC(=O)C4(C(=O)Nc5ccc(F)cc5)CC4)cc3)c2cc1Oc1ccc(N)cn1
IC50 [30]: 19 nM | GI50 [31]: 290 nM | GI50 [32]: 290 nM | GI50 [33]: 290 nM

Cc1cc2nc(-c3cc4ccccc4nc3Cl)[nH]c2cc1C
IC50 [46]: 7540 nM | IC50 [47]: 7540 nM | IC50 [19]: 7540 nM | IC50 [48]: 7540 nM | Activity [49]: 19.5%

COC(=O)[C@@H](NC(=O)CSc1ccnc2cc(Cl)ccc12)C(C)C
inhibition ([13]; concentration not given here): 61.1% | Time [50]: 24.6 days

Cc1ccc(/C=C2/SC(c3ccc(Cl)cc3)N(Nc3cc(C)c4ccccc4n3)C2=O)cc1 (stereo not drawn)
IC50 [41]: 0.423 µg/mL | IC50 [51]: 0.824 µg/mL (≈ 1.75 µM) | Activity [16]: 73.4%

Cc1cc(Nc2ccc(NC(=O)c3ccc(Nc4ccnc5ccccc45)cc3)cc2)nc(N)n1
IC50 [52]: 1700 nM | IC50 [53]: 1700 nM | IC50 [54]: 1700 nM | IC50 [55]: 1700 nM
